According to ChEMBL document CHEMBL1146830, “Synthesis and biological evaluation of nonpeptide integrin antagonists containing spirocyclic scaffolds” (Bioorg Med Chem Lett, 2004):

Legend:
Integrin alpha-5/beta-1 = Integrin alpha-5/beta-1 (Homo sapiens, UniProt P05556+P08648); experiment: Alpha-5 beta-1 antagonism using an ELISA assay; format: functional
[1] = molecular target: Integrin alpha-V/beta-3 (Homo sapiens); experiment: Evaluated in an functional alpha-v beta-3 antagonism assay, involving adhesion of beta-3-transfected 293 cells to fibrinogen (alpha-v beta-3 293 beta3)
[2] = molecular target: Integrin alpha-V/beta-3 and alpha-IIb/beta 3 (Homo sapiens, UniProt P05106+P06756+P08514); experiment: Inhibition of platelet aggregation in human platelet-rich plasma alpha IIb beta-3 integrin to assess the selectivity for the alpha-v beta-3 over the GPIIb/IIIa integrin receptor

Sequence of Integrin alpha-5/beta-1 (P05556 21-798 limits assumed): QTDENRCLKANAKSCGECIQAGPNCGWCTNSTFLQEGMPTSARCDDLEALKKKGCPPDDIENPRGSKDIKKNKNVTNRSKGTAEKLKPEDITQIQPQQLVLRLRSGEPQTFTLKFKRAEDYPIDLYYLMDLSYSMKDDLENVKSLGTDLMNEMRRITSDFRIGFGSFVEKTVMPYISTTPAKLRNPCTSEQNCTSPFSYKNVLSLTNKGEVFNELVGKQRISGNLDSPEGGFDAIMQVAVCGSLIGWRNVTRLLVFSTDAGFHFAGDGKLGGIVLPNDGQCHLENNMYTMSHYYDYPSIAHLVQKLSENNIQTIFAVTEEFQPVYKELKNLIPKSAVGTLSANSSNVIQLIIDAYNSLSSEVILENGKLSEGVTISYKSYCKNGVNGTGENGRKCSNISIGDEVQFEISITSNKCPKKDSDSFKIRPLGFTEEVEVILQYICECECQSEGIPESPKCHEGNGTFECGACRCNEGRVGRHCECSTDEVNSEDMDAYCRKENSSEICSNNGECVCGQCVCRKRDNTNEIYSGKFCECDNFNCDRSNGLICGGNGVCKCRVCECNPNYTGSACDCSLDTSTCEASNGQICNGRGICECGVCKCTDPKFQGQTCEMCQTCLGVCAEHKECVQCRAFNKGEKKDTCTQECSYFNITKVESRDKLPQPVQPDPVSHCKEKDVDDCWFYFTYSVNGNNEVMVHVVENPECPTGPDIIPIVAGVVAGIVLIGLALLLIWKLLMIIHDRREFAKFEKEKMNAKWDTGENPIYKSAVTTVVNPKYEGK
Sequence of Integrin alpha-5/beta-1 (P08648 42-894 limits assumed): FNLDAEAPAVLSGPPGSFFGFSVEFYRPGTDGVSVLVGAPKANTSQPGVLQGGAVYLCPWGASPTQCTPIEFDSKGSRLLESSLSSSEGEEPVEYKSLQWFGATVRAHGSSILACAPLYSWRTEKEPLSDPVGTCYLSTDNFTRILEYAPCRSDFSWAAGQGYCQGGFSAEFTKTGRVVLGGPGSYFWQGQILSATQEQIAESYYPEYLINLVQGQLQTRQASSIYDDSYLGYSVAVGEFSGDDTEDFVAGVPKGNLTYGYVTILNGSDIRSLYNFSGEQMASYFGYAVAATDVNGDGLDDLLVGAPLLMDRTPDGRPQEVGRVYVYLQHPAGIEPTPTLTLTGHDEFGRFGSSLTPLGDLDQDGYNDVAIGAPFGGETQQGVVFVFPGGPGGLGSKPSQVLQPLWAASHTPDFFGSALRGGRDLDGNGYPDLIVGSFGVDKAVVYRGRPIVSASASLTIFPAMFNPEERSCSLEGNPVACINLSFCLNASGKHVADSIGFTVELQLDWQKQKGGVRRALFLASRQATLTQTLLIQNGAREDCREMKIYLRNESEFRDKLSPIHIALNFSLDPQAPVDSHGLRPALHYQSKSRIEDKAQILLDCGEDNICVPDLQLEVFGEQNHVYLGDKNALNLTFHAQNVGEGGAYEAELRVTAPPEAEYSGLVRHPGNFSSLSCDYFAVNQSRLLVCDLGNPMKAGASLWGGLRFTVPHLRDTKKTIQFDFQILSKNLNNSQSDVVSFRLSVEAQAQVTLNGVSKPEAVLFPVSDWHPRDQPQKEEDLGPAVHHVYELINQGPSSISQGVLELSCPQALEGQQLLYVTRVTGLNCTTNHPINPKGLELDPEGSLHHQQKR
Sequence of Integrin alpha-5/beta-1 (P08648 895-1049 limits assumed): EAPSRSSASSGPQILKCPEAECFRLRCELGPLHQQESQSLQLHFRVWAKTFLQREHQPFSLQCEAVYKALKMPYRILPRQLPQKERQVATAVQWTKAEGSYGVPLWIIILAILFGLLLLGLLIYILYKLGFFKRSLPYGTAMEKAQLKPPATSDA

CCCCOC(=O)N1C[C@@]2(CC(C(=O)NC[C@H](NS(=O)(=O)c3c(C)cc(C)cc3C)C(=O)O)=NO2)C[C@H]1CNc1nc2ccccc2[nH]1
IC50 (Integrin alpha-5/beta-1): 0.39 nM | IC50 [1]: 87 nM

Cc1cc(C)c(S(=O)(=O)N[C@@H](CNC(=O)C2=NO[C@]3(C2)C[C@@H](CNC2=NCCN2)N(C(=O)OCc2ccccc2)C3)C(=O)O)c(C)c1
IC50 (Integrin alpha-5/beta-1): 13 nM | IC50 [2]: 7300 nM

Cc1cc(C)c(S(=O)(=O)N[C@@H](CNC(=O)C2=NO[C@]3(CN[C@H](CNc4ncc[nH]4)C3)C2)C(=O)O)c(C)c1
IC50 (Integrin alpha-5/beta-1): 230 nM | IC50 [2]: 1400 nM | IC50 [1]: 180 nM

CCCCOC(=O)N1C[C@@]2(CC(C(=O)NC[C@H](NS(=O)(=O)c3c(C)cc(C)cc3C)C(=O)O)=NO2)C[C@H]1CNc1ncc[nH]1
IC50 (Integrin alpha-5/beta-1): 14 nM | IC50 [2]: 11000 nM | IC50 [1]: 130 nM

Cc1cc(C)c(S(=O)(=O)N[C@@H](CNC(=O)C2=NO[C@@]3(C2)C[C@@H](CNC2=NCCN2)N(C(=O)OCc2ccccc2)C3)C(=O)O)c(C)c1
IC50 (Integrin alpha-5/beta-1): 1200 nM | IC50 [2]: 9200 nM

Cc1cc(C)c(S(=O)(=O)N[C@@H](CNC(=O)C2=NO[C@]3(C2)C[C@@H](CNc2ccccn2)N(C(=O)OCc2ccccc2)C3)C(=O)O)c(C)c1
IC50 (Integrin alpha-5/beta-1): 0.18 nM | IC50 [2]: > 100000 nM | IC50 [1]: 49 nM

Cc1cc(C)c(S(=O)(=O)N[C@@H](CNC(=O)C2=NO[C@]3(C2)C[C@@H](CNc2nc4ccccc4[nH]2)N(C(=O)OCc2ccccc2)C3)C(=O)O)c(C)c1
IC50 [2]: > 100000 nM | IC50 [1]: 74 nM

Cc1cc(C)c(S(=O)(=O)N[C@@H](CNC(=O)C2=NO[C@]3(C2)C[C@@H](CNc2ncc[nH]2)N(C(=O)OCc2ccccc2)C3)C(=O)O)c(C)c1
IC50 (Integrin alpha-5/beta-1): 18 nM | IC50 [2]: 34000 nM | IC50 [1]: 41 nM

Cc1cc(C)c(S(=O)(=O)N[C@@H](CNC(=O)C2=NO[C@]3(C2)C[C@@H](CNc2ncc[nH]2)N(C(=O)OCc2cccnc2)C3)C(=O)O)c(C)c1
IC50 (Integrin alpha-5/beta-1): 39 nM | IC50 [2]: 5600 nM | IC50 [1]: 32 nM

COC(=O)N1C[C@@]2(CC(C(=O)NC[C@H](NS(=O)(=O)c3c(C)cc(C)cc3C)C(=O)O)=NO2)C[C@H]1CNc1ncc[nH]1
IC50 (Integrin alpha-5/beta-1): 21 nM | IC50 [2]: 7300 nM | IC50 [1]: 57 nM

COC(=O)N1C[C@@]2(CC(C(=O)NC[C@H](NS(=O)(=O)c3c(C)cc(C)cc3C)C(=O)O)=NO2)C[C@H]1CNc1nc2ccccc2[nH]1
IC50 (Integrin alpha-5/beta-1): 1.4 nM | IC50 [2]: > 100000 nM | IC50 [1]: 34 nM
